Measured values taken from patent US20230284621A1, “HERBICIDAL COMPOSITIONS” (PBI-Gordon Corporation, priority 2022, published 2023).

How the values were obtained:
[1] = Chemical stability, accelerated 40° C. storage; format: physicochemical; settings: for 30 Days @ 40° C. (% Change from Initial): 30 days at 40° C.; for 42 Days @ 40° C. (% Change from Initial): 42 days at 40° C.
Description: (§1) Formulations were prepared as described in Example I. Physically stable formulations (no settling or physical issues observed) were tested for chemical stability over various time spans and temperature conditions.
Formulations were prepared as described in Example III. Physically stable formulations (no settling or physical issues observed) were tested for chemical stability over various time spans and temperature conditions.

[2] = Chemical stability, ambient storage; format: physicochemical; settings: for 17 Months (% Change from Initial): active ingredient in Professional Formulation 1, 17 Months (title: 14 Months); for 16 Months (% Change from Initial): active ingredient in Professional Formulation 2
Description: as §1

[3] = active ingredient in Consumer Formulation 3
[4] = active ingredient in Professional Formulation 1
[5] = active ingredient in Professional Formulation 2
[6] = active ingredient in Ready to Use Formulation 3
[7] = active ingredient in Ready-to-Use Formulation 2

Compound | 30 Days @ 40° C. (% Change from Initial) [1, 3] [%] | 42 Days @ 40° C. (% Change from Initial) [1, 4] | 42 Days @ 40° C. (% Change from Initial) [1, 5] | 30 Days @ 40° C. (% Change from Initial) [1, 6] | 30 Days @ 40° C. (% Change from Initial) [1, 7] | 17 Months (% Change from Initial) [2] | 16 Months (% Change from Initial) [2]
Cc1nn(-c2cc(NS(C)(=O)=O)c(Cl)cc2Cl)c(=O)n1C(F)F [Sulfentrazone, N-[2,4-dichloro-5-[4-(difluoromethyl)-3-methyl-5-oxo-1,2,4-triazol-1-yl]phenyl]methanesulfonamide] | 0.00 | +1.30% | +0.29% | −0.33% | −0.67% | +3.60% | +5.71%
O=C(O)COc1ccc(Cl)cc1Cl [2,4-D acid] | −0.21 | +0.66% | +1.38% | −.21% | +0.83% | +2.71% | −2.02%
COc1c(Cl)ccc(Cl)c1C(=O)O [Dicamba acid, 3,6-dichloro-2-methoxybenzoic acid] | 0.00 | −4.11% | 0.00% | −1.79% | +1.10% | +2.04% | −0.80%
Cc1c(C(=O)c2c[nH]n(C)c2=O)ccc(S(C)(=O)=O)c1C1=NOCC1 [Topramazone, 4-[3-(4,5-dihydro-1,2-oxazol-3-yl)-2-methyl-4-methylsulfonylbenzoyl]-2-methyl-1H-pyrazol-3-one] | −1.53 | −3.89% | +1.14% | −0.46% | 0.00% | −4.79% | −4.40%
